Data reported in PubChem BioAssay AID449764 (Southern Research Specialized Biocontainment Screening …, 2010).

System: Mycobacterium tuberculosis H37Rv growth inhibition, no glycerol
Experiment: Confirmatory growth inhibition assay, Mycobacterium tuberculosis H37Rv, absence of glycerol (AID 449764);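 also: growth read after 7 days of incubation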
Conditions: for IC90: measured here: IC90 growth inhibition

SMILES | IC50 | IC90
COC(=O)C1C(O)C(C)C(O)C(C)/C=C\C=C(/C)C(=O)Nc2c(C)c(OC(C)=O)c3c(c2O)C(=O)C(C)=C2OCOC(=C23)/C(C)=C/C(C)(O)C(O)C(C)C1O (configuration not stated) | < 0.2 µM | < 0.2 µM
CCCCNC(=S)N(C)/N=C/c1ccc2c(c1)OCO2 | 11.8 µM | 21.6 µM
COC(=O)c1c(NC(=O)CC2SC(N)=NC2=O)sc2c1CCC(C(C)(C)C)C2 (configuration not stated) | 40.2 µM | 64.4 µM
Cc1ccc(/C=C/C(=O)N2CC(C)CC(C)C2)o1 (configuration not stated) | 36.3 µM | 49.4 µM
CCn1c(NC(=O)c2nn(C)cc2Br)nc2ccccc21 | 9.5 µM | 16.8 µM
Cc1cncn1CCc1nc2c3ccccc3nc(SCC(=O)Nc3cccc(Cl)c3)n2n1 | 27.4 µM | 31.9 µM
Cc1cc(N/N=C/c2ccccc2[N+](=O)[O-])nc(-n2nc(C)cc2C)n1 | 3.42 µM | 5.14 µM
Cc1cc(NC(=O)c2cc(-c3ccncc3)nc3c(C)cccc23)no1 | 93.1 µM | > 100 µM
Cc1occc1-c1nnc(SCC(=O)NCCc2ccccc2)o1 | 16.6 µM | 25.2 µM
Cc1ccc(-c2csc3nc4c5ccccc5c(NCCCN5CCOCC5)nn4c(=O)c23)cc1 | 29 µM | 39.8 µM
O=[N+]([O-])c1cc([N+](=O)[O-])c2c(=Nc3ccccc3)n(-c3ccccc3)n(O)c2c1 | 8.32 µM | 10.3 µM
COc1ccccc1/C=C/C(=O)Nc1ccc(S(=O)(=O)Nc2cc(C)on2)cc1 | 28.5 µM | 57.1 µM
CCCn1c(Nc2nc3ccccc3n2C)nc2ccccc21 | 65.3 µM | 75.8 µM
CC(C)(C)c1ccc(OCCCC(=O)NC2=NCCS2)cc1 | 38.7 µM | 48.9 µM
CCOc1ccc(CN(C)CC(O)COC(c2ccc(OC)cc2)c2ccc(OC)cc2)cc1 (configuration not stated) | 16.1 µM | 18.9 µM
CCN(CC)Cc1nc2c(c(=O)[nH]1)C(CC)(CC)Cc1ccccc1-2 | 12.7 µM | 21.1 µM
O=C(CSc1nc2ccccc2c(=O)[nH]1)NCc1ccc(Cl)cc1 | 2.78 µM | 3.22 µM
O=C(NCCN1CCN(c2cccc(Cl)c2)CC1)c1ccc(CSc2nc3ccncc3[nH]2)cc1 | 21.8 µM | 32.1 µM
COC(=O)CSc1[nH]c2ccc(Br)cc2c1[N+](=O)[O-] | 15.1 µM | 25 µM
Cc1ccc(NCCC(=O)c2ccc(Br)cc2)cc1 | 26.4 µM | 43.8 µM
COc1ccc(NCc2nnc(SCC(=O)c3ccc(OC)cc3)o2)cc1 | 20.8 µM | 22.9 µM
CN(Cc1ccc(Cl)s1)C(=O)CCl | 1.54 µM | 1.73 µM

SMILES | IC50 | IC90
CCN1/C(=C/c2ccc3cc(C)ccc3[n+]2CC)Sc2ccccc21 | 2.73 µM | 3.07 µM
CC1CC(C)CN(C(=O)C2CCC(CNc3c(N4CCCCC4)c(=O)c3=O)CC2)C1 (configuration not stated) | 45.8 µM | > 100 µM
O=C(/C=C/c1ncc(C(F)(F)F)cc1Cl)OCc1ccccc1 | 90.5 µM | > 100 µM
Cc1ccc(Nc2nc(N)nc(CN3CCc4ccccc4C3)n2)cc1 | 5.61 µM | 18.6 µM
COC(=O)CSc1nnc(-c2sc3cc(OC)ccc3c2Cl)n1C | 35.8 µM | > 50 µM
O=C(c1cc2ccccc2o1)N1CCN(S(=O)(=O)c2ccc(Cl)s2)CC1 | 15.6 µM | 56 µM
Cc1ccc(-n2nc(C)c3c(C)c(CCC(=O)Nc4ccc(CN5CCCC5)cc4)c(C)nc32)cc1 | 15.7 µM | 22.1 µM
Oc1ccccc1N=Cc1ccc[nH]1 | 4.6 µM | 6.04 µM
Cc1ccc(N2C(=O)C(F)(F)C2c2ccccc2)cc1 (configuration not stated) | 4.61 µM | 7.9 µM
CC(C)(C)C1CCc2c(sc3nc(SCC(N)=O)nc(N)c23)C1 (configuration not stated) | 22.1 µM | 33.5 µM
COc1ccc(Nc2nc(N3CCCCC3)nc3ccccc23)c(OC)c1 | 22.7 µM | 26 µM
CN(CCCNC(=O)c1cc2c(Cl)nc3ccccc3c2s1)Cc1ccccc1 | 55.7 µM | 91.1 µM
O=C1c2ccccc2S(=O)(=O)c2cc(C(=O)N3CCN(c4c(Cl)cncc4Cl)CC3)ccc21 | 34.8 µM | 52.2 µM
CCCCCc1ccc(-c2cn(Cc3cccc(OC)c3)nn2)cc1 | 38.9 µM | > 100 µM
CCCCOC(=O)NS(=O)(=O)c1sc(CC(C)C)cc1-c1ccc(Cn2c(CC)nc3c(C)cc(C)nc32)cc1 | 30.7 µM | 47.2 µM
C=CCNc1oc(-c2ccc(-c3ccccc3)cc2)nc1C#N | 16.1 µM | 19.6 µM
O=[N+]([O-])c1cccnc1N1CCC(c2cc(-c3cccc(C(F)(F)F)c3)n[nH]2)CC1 | 21.5 µM | 34.4 µM
O=C1Nc2ccccc2/C1=N\N=C\C1=C(N2CCOCC2)C(=C\c2ccccc2)/CC1 | 36.5 µM | > 100 µM
COc1ccccc1C1CCN(Cc2ccc3ccccc3c2)CC1 | 21.8 µM | 24.6 µM
Cc1ccc(Cn2ccsc2=NC(=O)CCl)cc1 | 2.86 µM | 6.73 µM
Cc1ccc(S(=O)(=O)/N=C(\CCl)N2CCOCC2)cc1 | 18.6 µM | 27.5 µM
COc1ccc(C2=NC(=O)/C(=C\c3cc(OC)c(OC)c(OC)c3)O2)cc1 | 11.1 µM | 16.2 µM

SMILES | IC50 | IC90
Cc1ccc(NC(=O)C2=C(O)CCn3c2nc2ccccc23)cc1 | 13.5 µM | > 100 µM
COc1cccc2sc3ccc(C#CC4(N)CCCCC4)cc3c(=O)c12 | 73.8 µM | > 100 µM
Cc1cc(C(=O)N/N=C\C(Br)=C\c2ccccc2)c(C)o1 | 44.2 µM | 53.6 µM
CCOC(=O)CSC1=C(C#N)C(c2ccc(C)cc2)C2=C(CCCC2=O)N1 (configuration not stated) | 46.6 µM | > 100 µM
COc1ccc(C2=CC(c3c(C)nn(-c4ccccc4)c3Cl)n3nnnc3N2)cc1OC (configuration not stated) | 94.1 µM | > 100 µM
COc1ccc(C2CC(c3cccs3)=Nc3ccccc3S2)cc1 (configuration not stated) | 41.9 µM | 50.9 µM
CCc1nnc(NC(=O)CN2CCN(c3nc(-c4ccccc4)cs3)CC2)s1 | 42.6 µM | 92.6 µM
CC(c1nc2ccccc2c(=O)[nH]1)N(C)CCOc1ccc(Cl)cc1 (configuration not stated) | 40.7 µM | 55.5 µM
COc1ccc(C(=O)OCCNC(=O)c2c(Cl)nc3ccccn23)cc1 | 4.19 µM | 10.6 µM
COc1ccc(-n2c(-c3ccc(Cl)cc3)c[n+]3c2CCc2ccccc2-3)cc1 | 19.4 µM | 26.8 µM
COc1ccc(C(=O)/C=C/c2cc(OC)c(O)c(OC)c2)c(F)c1 | 60.7 µM | > 100 µM
C=CCS/C(N)=N\N=C\c1c(O)ccc2ccccc12 | 35.6 µM | 55.4 µM
COc1ccc(NC(=O)CSC2=C(C#N)C(c3ccco3)C(C(=O)Nc3nc4ccccc4s3)=C(C)N2)cc1 (configuration not stated) | 7.09 µM | 16.4 µM
Cn1ccnc1C(=O)C1CCCN(Cc2cn[nH]c2-c2ccc(-c3ccccc3)cc2)C1 (configuration not stated) | 77.1 µM | 99.4 µM
CSc1nsc(SCC(=O)Nc2ccc(F)cc2F)n1 | 88.7 µM | 98.9 µM
N#CC1=C(c2ccccc2)/C(=C/c2ccccc2)OC1=O | 11.6 µM | 23.2 µM
Cc1cc(NC(=O)c2sccc2C)n(-c2nc3ccccc3[nH]2)n1 | 10.2 µM | > 100 µM
COc1ccc(OCC(=O)Nc2c(C(=O)N(CCN(C)C)Cc3ccco3)oc3ccccc23)cc1 | 41.8 µM | 45.9 µM
COC(=O)c1ccc(C(=O)OC)c(NC(=O)CSc2cccc[n+]2[O-])c1 | 5.72 µM | 6.25 µM
Cc1c(OCc2ccccc2)c(=O)ccn1Cc1ccc(Cl)cc1 | 57.6 µM | 95.9 µM
Cn1c(CNc2ccccc2O)nc2ccccc21 | 3.05 µM | 3.36 µM
CCc1ccc2[nH]c(=O)c(CN(CCCN3CCOCC3)C(=O)Nc3cccc(Cl)c3)cc2c1 | 33.7 µM | 40.5 µM

SMILES | IC50 | IC90
CCc1ccc(NC(=S)/N=C(\N)Nc2nc(C)c3cc(CC)ccc3n2)cc1 | 10.9 µM | 21.1 µM
CCCCn1c(NCc2ccc3c(c2)OCO3)nc2ccccc21 | 23.5 µM | 25.9 µM
CCCCNC(=S)Nc1ccc2cn[nH]c2c1 | 12 µM | 31.8 µM
Cc1ccc(CN2CC(C(=O)OCc3ccccc3Cl)CC2=O)cc1 (configuration not stated) | 11.1 µM | 29.6 µM
CCCn1c(=N)c(C(=O)NCc2ccc3c(c2)OCO3)cc2c(=O)n3cccc(C)c3nc21 | 20.6 µM | 29.1 µM
Cn1nc([N+](=O)[O-])nc1Sc1ccc(C(C)(C)C)cc1 | 8.88 µM | 17.1 µM
CC(C)Cn1c([N+](=O)[O-])nc2c1c(=O)[nH]c(=O)n2C | 9.69 µM | 14.5 µM
Cc1cc(C)c2cc(C(=O)Nc3ccc(C)c(F)c3)[nH]c2c1 | 1.32 µM | 1.91 µM
O=[N+]([O-])c1ccc(-c2nc(-c3cccs3)c(-c3cccs3)[nH]2)cc1 | 20.8 µM | > 100 µM
CC(C)Oc1ccc(-c2nc(NCC3CCCO3)c3ccccc3n2)cc1 (configuration not stated) | 62.3 µM | 98.3 µM
O=C(Nc1nc(-c2cc(Cl)sc2Cl)cs1)c1cccs1 | 67.7 µM | > 100 µM
CN1CCN(CC(=O)N2CCn3c4c(c5cc(C6CCCCC6)ccc53)CCCC42)CC1 (configuration not stated) | 18 µM | 21.6 µM
CC(=O)N1CCN(c2ccc(OC[C@H]3CO[C@](Cn4ccnc4)(c4ccc(Cl)cc4Cl)O3)cc2)CC1 | 14.6 µM | 20.8 µM
C#CCOCCOCCOCCNc1nc(N2CCN(C(=O)C(Cc3ccc(O)cc3)n3cc(C(N)CC(C)C)nn3)CC2)nc(N2CCN(C(=O)C(Cc3cc4ccccc4[nH]3)n3cc(C(N)Cc4ccc(O)cc4)nn3)CC2)n1 (configuration not stated) | 16.9 µM | 23.8 µM
O=S(=O)(c1ccc(Cl)cc1)c1snnc1-c1ccccc1 | 18.8 µM | 29.9 µM
CCn1cc(Br)c(C(=O)Nc2ccc(C(=O)OC(C)C)cc2)n1 | 39.3 µM | 59.5 µM
CCCn1c(CC)nc([N+](=O)[O-])c1S(=O)(=O)c1ccccc1 | 18.2 µM | 23.6 µM
O=[N+]([O-])c1cnc(Nc2ccc(Cl)cn2)c([N+](=O)[O-])c1 | 90.3 µM | 99.4 µM
N#C/C(N=Nc1ccccc1O)=N\Nc1ccccc1O | 2.25 µM | 3.64 µM
CSc1ccccc1OCc1cc(C(=O)N2CCC(Oc3cccnc3)CC2)no1 | 28.3 µM | 37.3 µM
